{
  "source": "ChEMBL document CHEMBL1201862",
  "about": "“PubChem BioAssay data set” (2004)",
  "key": {"[1]": {"assay": "inhibitors of firefly luciferase expression or activity, dose response, H4 neuroglioma cells, luminescence (AID 1990)", "format": "functional, cell-based"}, "[2]": {"assay": "inhibitors of SNCA 5'UTR-driven reporter translation, confirmation, H4 neuroglioma cells, luminescence (AID 1988)", "format": "functional, cell-based"}, "[3]": {"assay": "Luminescence Cell-Based Dose Response HTS to Identify Inhibitors of 5'UTR Stem-Loop Driven Prion Protein mRNA Translation in H4 Neuroglioblastoma Cells. [Related pubchem assays: 1827 (Project Summary), 1813 (Primary HTS)]", "format": "functional"}, "[4]": {"molecular_target": "T1, Calpain-2 catalytic subunit (Sus scrofa, UniProt P43367)", "T1 sequence (P43367 whole entry)": "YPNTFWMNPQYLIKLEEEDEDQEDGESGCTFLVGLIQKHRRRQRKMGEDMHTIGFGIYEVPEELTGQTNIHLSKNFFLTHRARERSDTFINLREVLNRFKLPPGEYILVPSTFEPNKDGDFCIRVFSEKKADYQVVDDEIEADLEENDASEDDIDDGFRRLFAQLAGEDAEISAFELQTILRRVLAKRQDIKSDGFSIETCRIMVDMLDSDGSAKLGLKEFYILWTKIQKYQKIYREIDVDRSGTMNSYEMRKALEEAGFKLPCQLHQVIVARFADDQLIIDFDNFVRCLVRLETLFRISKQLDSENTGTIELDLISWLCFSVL", "assay": "pig calpain II inhibitor potency, dose response, biochemical, fluorogenic peptide substrate (AID 1420)", "format": "functional"}, "[5]": {"molecular_target": "T2, Corticotropin-releasing factor receptor 2/Corticotropin-releasing factor-binding protein (Homo sapiens, UniProt P24387+Q13324)", "T2 sequence (Q13324 whole entry)": "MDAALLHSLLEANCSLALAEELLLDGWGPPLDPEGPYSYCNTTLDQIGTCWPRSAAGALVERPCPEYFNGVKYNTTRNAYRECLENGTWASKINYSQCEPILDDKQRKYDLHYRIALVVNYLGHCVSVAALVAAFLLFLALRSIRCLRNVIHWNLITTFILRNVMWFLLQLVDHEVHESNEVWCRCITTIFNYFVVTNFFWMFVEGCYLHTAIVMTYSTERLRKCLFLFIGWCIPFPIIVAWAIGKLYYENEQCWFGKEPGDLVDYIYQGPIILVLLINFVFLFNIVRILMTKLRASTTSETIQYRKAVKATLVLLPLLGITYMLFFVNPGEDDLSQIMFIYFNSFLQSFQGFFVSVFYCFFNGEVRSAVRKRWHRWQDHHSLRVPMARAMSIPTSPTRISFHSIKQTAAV", "T2 sequence (P24387 whole entry)": "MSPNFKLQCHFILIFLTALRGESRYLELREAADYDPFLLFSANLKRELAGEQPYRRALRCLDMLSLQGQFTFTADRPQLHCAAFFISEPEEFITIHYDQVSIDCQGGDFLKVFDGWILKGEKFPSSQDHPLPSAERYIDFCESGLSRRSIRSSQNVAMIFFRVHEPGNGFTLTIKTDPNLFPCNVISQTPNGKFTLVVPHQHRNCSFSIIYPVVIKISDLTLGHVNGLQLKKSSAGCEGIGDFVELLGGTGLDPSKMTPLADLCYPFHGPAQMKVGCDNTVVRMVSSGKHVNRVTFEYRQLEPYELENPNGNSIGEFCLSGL", "assay": "Dose Response confirmation of uHTS hits for small molecule antagonists of the CRF-binding protein and CRF-R2 receptor complex.", "format": "functional", "details": "read-out: IC50_Mean"}, "[6]": {"molecular_target": "T2, Corticotropin-releasing factor receptor 2/Corticotropin-releasing factor-binding protein", "assay": "activators of CRF receptor 2 with binding protein – uHTS hits, confirmation (AID 602473)", "format": "functional", "details": "read-out: EC50_Mean"}, "Cytochrome P450 2C19": {"molecular_target": "Cytochrome P450 2C19 (Homo sapiens, UniProt P33261)", "sequence (P33261 whole entry)": "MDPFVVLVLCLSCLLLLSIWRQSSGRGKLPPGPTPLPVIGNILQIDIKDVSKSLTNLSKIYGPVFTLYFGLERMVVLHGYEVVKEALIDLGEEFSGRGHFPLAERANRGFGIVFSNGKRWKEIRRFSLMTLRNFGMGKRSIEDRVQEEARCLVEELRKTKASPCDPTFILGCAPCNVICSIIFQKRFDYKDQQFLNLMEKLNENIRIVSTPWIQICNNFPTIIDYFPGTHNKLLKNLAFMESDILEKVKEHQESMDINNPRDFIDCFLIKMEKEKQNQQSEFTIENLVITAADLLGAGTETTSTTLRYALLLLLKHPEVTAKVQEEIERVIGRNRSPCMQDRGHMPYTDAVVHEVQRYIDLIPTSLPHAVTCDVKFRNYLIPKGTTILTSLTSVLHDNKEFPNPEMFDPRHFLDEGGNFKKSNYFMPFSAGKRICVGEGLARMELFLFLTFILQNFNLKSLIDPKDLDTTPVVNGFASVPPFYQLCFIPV", "assay": "Cytochrome panel assay with activity outcomes. Panel member name: p450-cyp2c19 Compounds with AC50 equal or less than 10 uM are considered active", "format": "functional", "details": "read-out: AC50"}, "Cytochrome P450 3A4": {"molecular_target": "Cytochrome P450 3A4 (Homo sapiens, UniProt P08684)", "sequence (P08684 whole entry)": "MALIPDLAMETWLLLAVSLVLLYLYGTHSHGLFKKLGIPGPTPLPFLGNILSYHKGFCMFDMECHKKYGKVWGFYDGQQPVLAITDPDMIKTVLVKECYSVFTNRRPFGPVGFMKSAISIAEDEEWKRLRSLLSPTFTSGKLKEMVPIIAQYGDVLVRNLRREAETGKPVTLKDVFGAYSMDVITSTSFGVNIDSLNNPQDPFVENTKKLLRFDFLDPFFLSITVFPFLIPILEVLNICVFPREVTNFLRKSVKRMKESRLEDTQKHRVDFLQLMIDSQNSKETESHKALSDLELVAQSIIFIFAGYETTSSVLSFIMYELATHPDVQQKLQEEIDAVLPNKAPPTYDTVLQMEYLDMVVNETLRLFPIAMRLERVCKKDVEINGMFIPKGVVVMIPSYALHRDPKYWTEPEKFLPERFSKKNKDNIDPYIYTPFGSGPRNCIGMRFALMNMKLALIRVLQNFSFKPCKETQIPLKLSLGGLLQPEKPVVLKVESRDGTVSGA"}, "INS1": {"system": "INS1", "assay": "beta cell apoptosis inhibitors, cytokine rescue, dose response, luminescence, retest (AID 449756);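 note: cell death triggered by IL-1 beta plus TNF-alpha plus IFN-gamma mixture; protective hits raise ATP signal compared with cytokine alone wells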", "format": "functional, cell-based", "details": "Rattus norvegicus"}, "Cytochrome P450 2C9": {"molecular_target": "Cytochrome P450 2C9 (Homo sapiens, UniProt P11712)", "sequence (P11712 whole entry)": "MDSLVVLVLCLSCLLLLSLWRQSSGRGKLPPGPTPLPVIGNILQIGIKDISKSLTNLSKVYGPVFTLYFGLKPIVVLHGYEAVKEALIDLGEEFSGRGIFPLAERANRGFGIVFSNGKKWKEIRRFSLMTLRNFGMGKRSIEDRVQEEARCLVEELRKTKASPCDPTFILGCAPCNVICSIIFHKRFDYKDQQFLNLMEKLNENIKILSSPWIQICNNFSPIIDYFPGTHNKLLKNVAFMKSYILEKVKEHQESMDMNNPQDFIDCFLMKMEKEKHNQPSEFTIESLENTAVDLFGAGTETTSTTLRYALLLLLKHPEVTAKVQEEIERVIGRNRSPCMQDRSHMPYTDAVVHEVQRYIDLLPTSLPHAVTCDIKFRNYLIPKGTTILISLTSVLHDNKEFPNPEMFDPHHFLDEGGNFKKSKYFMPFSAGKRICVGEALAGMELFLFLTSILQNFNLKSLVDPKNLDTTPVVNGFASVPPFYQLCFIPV"}, "Cytochrome P450 2D6": {"molecular_target": "Cytochrome P450 2D6 (Homo sapiens, UniProt P10635)", "sequence (P10635 whole entry)": "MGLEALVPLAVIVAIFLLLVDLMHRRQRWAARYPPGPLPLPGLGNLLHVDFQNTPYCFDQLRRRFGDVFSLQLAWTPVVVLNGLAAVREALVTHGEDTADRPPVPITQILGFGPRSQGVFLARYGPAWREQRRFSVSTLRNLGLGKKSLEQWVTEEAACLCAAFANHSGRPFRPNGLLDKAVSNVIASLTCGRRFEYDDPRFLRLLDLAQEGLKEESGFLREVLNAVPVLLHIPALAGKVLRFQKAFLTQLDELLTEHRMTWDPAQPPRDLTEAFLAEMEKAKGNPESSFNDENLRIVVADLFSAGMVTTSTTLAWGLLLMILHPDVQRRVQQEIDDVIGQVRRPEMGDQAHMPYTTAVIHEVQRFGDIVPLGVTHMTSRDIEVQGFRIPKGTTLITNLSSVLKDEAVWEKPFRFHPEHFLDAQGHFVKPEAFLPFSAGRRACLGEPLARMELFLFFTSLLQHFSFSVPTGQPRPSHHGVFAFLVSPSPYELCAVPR"}, "Cytochrome P450 1A2": {"molecular_target": "T3, Cytochrome P450 1A2 (Homo sapiens, UniProt P05177)", "T3 sequence (P05177 whole entry)": "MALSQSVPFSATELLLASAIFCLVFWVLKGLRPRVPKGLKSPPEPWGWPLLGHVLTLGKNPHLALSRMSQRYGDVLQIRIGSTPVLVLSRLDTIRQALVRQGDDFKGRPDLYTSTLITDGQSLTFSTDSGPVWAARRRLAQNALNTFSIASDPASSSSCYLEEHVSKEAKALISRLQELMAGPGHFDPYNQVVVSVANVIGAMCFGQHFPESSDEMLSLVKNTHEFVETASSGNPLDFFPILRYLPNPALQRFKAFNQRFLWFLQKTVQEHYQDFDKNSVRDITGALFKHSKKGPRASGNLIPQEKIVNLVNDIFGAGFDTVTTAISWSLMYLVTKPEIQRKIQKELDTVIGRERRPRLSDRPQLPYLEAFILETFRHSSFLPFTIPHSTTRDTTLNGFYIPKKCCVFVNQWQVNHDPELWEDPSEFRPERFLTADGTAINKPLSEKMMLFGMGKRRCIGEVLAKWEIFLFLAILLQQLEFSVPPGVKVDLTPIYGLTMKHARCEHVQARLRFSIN"}, "[7]": {"system": "Streptococcus sp. 'group A'", "assay": "growth inhibition of control SK(-) GAS strain, dose response, counter-screen for streptokinase expression inhibitor project, luminescence, kanamycin, BacTiterGlo, confirmation (AID 1900)", "format": "functional, organism-based"}, "Streptococcus": {"system": "Streptococcus", "assay": "Group A Streptococcus viability loss, dose response, counter-screen for streptokinase expression inhibitor project, luminescence, BacTiterGlo (AID 1915);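 note: potency for reduction of bacterial viability or growth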", "format": "functional, organism-based"}, "[8]": {"assay": "Luminescence Cell-Based Dose Confirmation HTS to Identify Inhibitors of Platelet Dense Granule Release. [Related pubchem assays: 1663 (Primary HTS), 1678 (Summary of Project)]", "format": "functional"}, "[9]": {"molecular_target": "Luciferin 4-monooxygenase (Photinus pyralis, UniProt P08659)", "sequence (P08659 whole entry)": "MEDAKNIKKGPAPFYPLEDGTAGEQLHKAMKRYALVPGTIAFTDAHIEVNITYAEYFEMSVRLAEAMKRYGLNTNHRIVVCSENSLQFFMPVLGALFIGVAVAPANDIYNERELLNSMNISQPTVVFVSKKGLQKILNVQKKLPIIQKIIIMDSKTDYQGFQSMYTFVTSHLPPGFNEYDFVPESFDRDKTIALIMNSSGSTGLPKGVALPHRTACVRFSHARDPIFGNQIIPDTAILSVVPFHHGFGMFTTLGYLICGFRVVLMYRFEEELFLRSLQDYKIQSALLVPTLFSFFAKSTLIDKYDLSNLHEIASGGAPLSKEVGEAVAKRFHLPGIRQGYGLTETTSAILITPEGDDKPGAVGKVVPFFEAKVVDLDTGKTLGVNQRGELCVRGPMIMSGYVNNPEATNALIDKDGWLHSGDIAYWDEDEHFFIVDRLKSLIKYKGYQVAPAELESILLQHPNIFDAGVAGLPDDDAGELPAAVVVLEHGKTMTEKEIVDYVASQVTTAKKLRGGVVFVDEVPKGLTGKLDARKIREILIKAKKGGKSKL", "assay": "firefly luciferase enzyme inhibitors, dose response, biochemical, luminescence (AID 1891)"}},
  "note": "The source made the active and inactive calls.",
  "data": [
    {"compound": "CC(C)c1ccc(/C=C/C2=NNC(=O)CC2)cc1", "values": [
      {"measurement": "EC50", "setting": "[1]", "result": "< 0.1 µM (active)"},
      {"measurement": "EC50", "setting": "[2]", "result": "0.13 µM (active)"},
      {"measurement": "EC50", "setting": "[3]", "result": "11.5 µM (active)"},
      {"measurement": "IC50", "setting": "[4]", "result": "14.3 µM (not active)"}
    ]},
    {"compound": "COc1ccc2[nH]c3c(c2c1)CCN1C(=O)C(CC(=O)NCCc2ccccn2)C[C@H](C(=O)N(C(C)C)C(C)C)[C@@]31C", "note": "(some centres undefined)", "values": [
      {"measurement": "IC50", "setting": "[5]", "result": "> 47.1 µM (inactive)"},
      {"measurement": "EC50", "setting": "[6]", "result": "> 53 µM (inactive)"}
    ]},
    {"compound": "CCCC1Cc2c(sc(NC(=S)NC(=O)c3ccccc3)c2C#N)CO1", "note": "(centres undefined)", "values": [
      {"measurement": "IC50", "setting": "[4]", "result": "31 µM (not active)"}
    ]},
    {"compound": "Cc1ccc(-c2nc(-c3nccc4ccccc34)oc2-c2ccccc2)cc1", "values": [
      {"measurement": "AC50", "setting": "Cytochrome P450 2C19", "result": "5.01 µM (inconclusive)"},
      {"measurement": "AC50", "setting": "Cytochrome P450 3A4", "result": "5.01 µM (inconclusive)"}
    ]},
    {"compound": "Cc1ccccc1OC1C(=O)N(Cc2ccc3c(c2)OCO3)C1c1sccc1C", "note": "(centres undefined)", "values": [
      {"measurement": "AC50", "setting": "INS1", "result": "11.4 µM (active)"}
    ]},
    {"compound": "c1cc2c(cc1C1CCCCC1)c1c3n2CCN[C@H]3CCC1", "values": [
      {"measurement": "AC50", "setting": "Cytochrome P450 2C9", "result": "20 µM (inconclusive)"},
      {"measurement": "AC50", "setting": "Cytochrome P450 3A4", "result": "31.6 µM (inconclusive)"},
      {"measurement": "AC50", "setting": "Cytochrome P450 2D6", "result": "12.6 µM (inconclusive)"}
    ]},
    {"compound": "CCNC(=O)NCc1c(C)c(C)n(Cc2ccccc2)c1-n1cccc1", "values": [
      {"measurement": "IC50", "setting": "[4]", "result": "8.86 µM (not active)"}
    ]},
    {"compound": "Cc1ccccc1OCCNc1ccc(C(F)(F)F)cc1[N+](=O)[O-]", "values": [
      {"measurement": "AC50", "setting": "Cytochrome P450 2C19", "result": "0.316 µM (inconclusive)"},
      {"measurement": "AC50", "setting": "Cytochrome P450 3A4", "result": "31.6 µM (inconclusive)"},
      {"measurement": "AC50", "setting": "Cytochrome P450 2D6", "result": "5.01 µM (inconclusive)"}
    ]},
    {"compound": "Cc1ccc(-c2nnc(C)c(N3CC(C)OC(C)C3)n2)cc1", "note": "(centres undefined)", "values": [
      {"measurement": "AC50", "setting": "Cytochrome P450 3A4", "result": "5.01 µM (inconclusive)"},
      {"measurement": "AC50", "setting": "Cytochrome P450 1A2", "result": "4.47 µM (inconclusive)"}
    ]},
    {"compound": "O=C(COC(=O)c1ccncc1)Nc1cc(S(=O)(=O)N2CCOCC2)ccc1Cl", "values": [
      {"measurement": "IC50", "setting": "[5]", "result": "> 47.1 µM (inactive)"},
      {"measurement": "EC50", "setting": "[6]", "result": "> 53 µM (inactive)"}
    ]},
    {"compound": "O=C(c1ccc(Oc2ccccc2)cc1)c1nc2c(n1O)CCCC2", "values": [
      {"measurement": "IC50", "setting": "[4]", "result": "12.9 µM (not active)"}
    ]},
    {"compound": "COc1ccc(N(C(=O)c2ccco2)C(C(=O)NC2CCCC2)c2ccc(N3CCOCC3)cc2)c(OC)c1", "note": "(centres undefined)", "values": [
      {"measurement": "IC50", "setting": "[5]", "result": "> 47.1 µM (inactive)"},
      {"measurement": "EC50", "setting": "[6]", "result": "> 53 µM (inactive)"}
    ]},
    {"compound": "O=C(CNc1ccccc1)N/N=C/c1c(O)ccc2ccccc12", "values": [
      {"measurement": "EC50", "setting": "[7]", "result": "1.02 µM (active)"},
      {"measurement": "AC50", "setting": "INS1", "result": "3.29 µM (active)"},
      {"measurement": "EC50", "setting": "Streptococcus", "result": "0.939 µM (active)"}
    ]},
    {"compound": "Cc1nc(SCC(=O)NC(C)c2ccccc2)c2oc3ccccc3c2n1", "note": "(centres undefined)", "values": [
      {"measurement": "IC50", "setting": "[4]", "result": "< 0.4 µM (not active)"}
    ]},
    {"compound": "O=C(N/N=C\\c1ccc(Sc2ccccn2)o1)c1cccc(Br)c1", "values": [
      {"measurement": "AC50", "setting": "Cytochrome P450 3A4", "result": "22.4 µM (inconclusive)"},
      {"measurement": "AC50", "setting": "Cytochrome P450 2D6", "result": "28.2 µM (inconclusive)"}
    ]},
    {"compound": "CCc1nnc(NC(=O)[C@@H](NC(=O)c2cc(OC)cc(OC)c2)C(C)C)s1", "values": [
      {"measurement": "EC50", "setting": "[8]", "result": "> 112 µM (not active)"},
      {"measurement": "EC50", "setting": "[9]", "result": "> 112 µM (not active)"},
      {"measurement": "IC50", "setting": "[4]", "result": "49.9 µM (not active)"}
    ]},
    {"compound": "O=C(/C=C/c1ccccc1[N+](=O)[O-])N1CCOCC1", "values": [
      {"measurement": "IC50", "setting": "[5]", "result": "> 47.1 µM (inactive)"},
      {"measurement": "EC50", "setting": "[6]", "result": "> 53 µM (inactive)"}
    ]},
    {"compound": "CCCCCCC(=O)N1C/C=C\\C(c2ccc(OC)cc2)N(Cc2ccc(F)cc2)C(=O)[C@H]1Cc1ccccc1", "note": "(some centres undefined)", "values": [
      {"measurement": "EC50", "setting": "[1]", "result": "> 120 µM (not active)"},
      {"measurement": "EC50", "setting": "[2]", "result": "9.71 µM (active)"},
      {"measurement": "AC50", "setting": "INS1", "result": "6.16 µM (active)"},
      {"measurement": "EC50", "setting": "[3]", "result": "> 120 µM (not active)"}
    ]}
  ]
}
